# Structures can show the parent of a compound that is named as a salt. Where two headings read alike, the source gives them in different places.
# Target: NLRP3 (Homo sapiens, UniProt Q96P20)
# Assay: THP-1 cells pyroptosis assay
# Format: cell-based
# Parameters: Seed THP-1 cells (25,000 cells/well) containing 1.0 μg/ml LPS; host or cells: THP-1 cells, LPS-primed, nigericin-stimulated
# Description: The cells were routinely passaged and grown to confluency (˜10^6 cells/ml). On the day of the experiment, THP-1 cells were harvested and resuspended into RPMI medium (without FBS). The cells were then counted and viability (>90%) checked by Trypan blue (Sigma # T8154). […] To this diluted cell solution was added LPS (Sigma # L4524) to give a 1 μg/ml Final Assay Concentration (FAC). 40 μl of the final preparation was aliquoted into each well of a 96-well plate. The plate thus prepared was used for compound screening. THP-1 Cells Pyroptosis Assay The following method step-by-step assay was followed for compound screening. • 1. […] Add 5 μl nigericin (Sigma # N7143) (FAC 5 μM) to all wells • 5. […] At the end of the incubation period, spin plates at 300×g for 3 mins and remove supernatant • 7. Then add 50 μl of resazurin (Sigma # R7017) (FAC 100 μM resazurin in RPMI medium without FBS) and incubate plates for a further 1-2 hrs at 37° C. and 5% CO2 • 8. […] IC50 data is fitted to a non-linear regression equation (log inhibitor vs response-variable slope 4-parameters) [table]
# [1] = THP-1 cells, 1.0 μg/ml LPS, nigericin 5 μM, pyroptosis read with resazurin, read-out: THP IC50
# NLRP3, sequence (Q96P20 whole entry): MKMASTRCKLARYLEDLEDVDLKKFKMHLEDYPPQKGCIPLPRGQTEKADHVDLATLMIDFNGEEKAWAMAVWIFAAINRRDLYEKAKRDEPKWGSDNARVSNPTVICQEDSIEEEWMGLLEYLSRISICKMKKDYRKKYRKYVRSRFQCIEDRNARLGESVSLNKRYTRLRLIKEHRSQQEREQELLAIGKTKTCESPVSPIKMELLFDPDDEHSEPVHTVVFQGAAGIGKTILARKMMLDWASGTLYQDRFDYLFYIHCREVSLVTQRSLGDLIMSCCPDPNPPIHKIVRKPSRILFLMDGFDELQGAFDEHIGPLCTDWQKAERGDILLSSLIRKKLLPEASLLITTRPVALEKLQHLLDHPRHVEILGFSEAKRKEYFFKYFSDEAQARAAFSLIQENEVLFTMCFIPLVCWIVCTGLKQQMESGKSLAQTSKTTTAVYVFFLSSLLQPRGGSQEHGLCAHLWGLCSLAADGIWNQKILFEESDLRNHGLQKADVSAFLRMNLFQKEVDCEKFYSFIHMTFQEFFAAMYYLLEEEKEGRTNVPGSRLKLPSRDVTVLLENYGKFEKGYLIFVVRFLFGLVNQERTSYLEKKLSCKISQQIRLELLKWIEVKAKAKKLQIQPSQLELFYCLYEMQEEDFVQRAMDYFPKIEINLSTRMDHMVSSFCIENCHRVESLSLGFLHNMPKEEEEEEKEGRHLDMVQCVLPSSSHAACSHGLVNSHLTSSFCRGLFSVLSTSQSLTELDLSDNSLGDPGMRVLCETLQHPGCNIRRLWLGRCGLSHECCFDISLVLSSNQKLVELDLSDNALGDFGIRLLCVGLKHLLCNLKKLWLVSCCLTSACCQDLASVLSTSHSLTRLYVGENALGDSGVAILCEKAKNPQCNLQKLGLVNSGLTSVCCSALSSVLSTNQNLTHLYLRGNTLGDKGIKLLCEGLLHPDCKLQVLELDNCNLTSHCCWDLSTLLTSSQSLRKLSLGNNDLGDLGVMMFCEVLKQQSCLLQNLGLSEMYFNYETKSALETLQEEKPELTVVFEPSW
Structure (SMILES),IC50 [1] [nM],"IC50 (THP-1 pyroptosis assay, bound stated, read-out: IC50 value) [nM]"
"O=C(Nc1c2c(cc3c1CCC3)CCC2)NS(=O)(=O)c1cccnn1 [Example 2, N-((1,2,3,5,6,7-Hexahydro-s-indacen-4-yl)carbamoyl)pyridazine-3-sulfonamide, Potassium Salt]",< 2000,
"O=C(Nc1c2c(cc3c1CCC3)CCC2)NS(=O)(=O)c1ncccn1 [Example 3, N-((1,2,3,5,6,7-Hexahydro-s-indacen-4-yl)carbamoyl) pyrimidine-2-sulfonamide, Potassium Salt]",< 1600,> 1200
"Cc1ccc(S(=O)(=O)NC(=O)Nc2c3c(cc4c2CCC4)CCC3)nn1 [Example 4, N-((1,2,3,5,6,7-Hexahydro-s-indacen-4-yl)carbamoyl)-6-methylpyridazine-3-sulfonamide, Sodium Salt]",< 10000,
"Cc1ccc(S(=O)(=O)NC(=O)Nc2c(C(C)C)cccc2C(C)C)nn1 [Example 5, N-((2,6-Diisopropylphenyl)carbamoyl)-6-methylpyridazine-3-sulfonamide, Potassium Salt]",< 10000,
"CC(C)c1cccc(C(C)C)c1NC(=O)NS(=O)(=O)c1cnccn1 [Example 6, N-((2,6-Diisopropylphenyl)carbamoyl)pyrazine-2-sulfonamide, Sodium Salt]",< 10000,
"O=C(Nc1c2c(cc3c1CCC3)CCC2)NS(=O)(=O)c1ccc(Cl)nn1 [Example 11, 6-Chloro-N-((1,2,3,5,6,7-hexahydro-s-indacen-4-yl)carbamoyl) pyridazine-3-sulfonamide, Potassium Salt]",< 10000,
"COc1cc(S(=O)(=O)NC(=O)Nc2c3c(cc4c2CCC4)CCC3)c(OC)nn1 [Example 12, N-((1,2,3,5,6,7-Hexahydro-s-indacen-4-yl)carbamoyl)-3,6-di methoxypyridazine-4-sulfonamide, potassium salt]",< 1200,
"CN(C)c1ccc(S(=O)(=O)NC(=O)Nc2c3c(cc4c2CCC4)CCC3)nn1 [Example 13, 6-(Dimethylamino)-N-((1,2,3,5,6,7-hexahydro-s-indacen-4-yl)carbamoyl)pyridazine-3-sulfonamide, potassium salt]",< 1600,
"O=C(Nc1c2c(cc3c1CCC3)CCC2)NS(=O)(=O)c1nccnc1C(F)F [Example 14, 3-(Difluoromethyl)-N-((1,2,3,5,6,7-hexahydro-s-indacen-4-yl)carbamoyl)pyrazine-2-sulfonamide, potassium salt]",< 2000,
"COc1ncccc1S(=O)(=O)NC(=O)Nc1c2c(cc3c1CCC3)CCC2 [Example 15, N-((1,2,3,5,6,7-Hexahydro-s-indacen-4-yl)carbamoyl)-2-methoxypyridine-3-sulfonamide, Potassium Salt]",< 1200,
"O=C(Nc1c2c(cc3c1CCC3)CCC2)NS(=O)(=O)c1cc(C(F)(F)F)cnn1 [Example 16, N-((1,2,3,5,6,7-Hexahydro-s-indacen-4-yl)carbamoyl)-5-(trifluoromethyl)pyridazine-3-sulfonamide, Potassium Salt]",< 10000,
"COc1cc(S(=O)(=O)NC(=O)Nc2c3c(cc4c2CCC4)CCC3)ncn1 [Example 19, N-((1,2,3,5,6,7-Hexahydro-s-indacen-4-yl)carbamoyl)-6-methoxypyrimidine-4-sulfonamide, Potassium Salt]",< 800,
"NC(=O)c1ccc(S(=O)(=O)NC(=O)Nc2c3c(cc4c2CCC4)CCC3)nn1 [Example 20, 6-(N-((1,2,3,5,6,7-Hexahydro-s-indacen-4-yl)carbamoyl)sulfamoyl) pyridazine-3-carboxamide, potassium salt]",< 10000,
"CN(C)c1cnnc(S(=O)(=O)NC(=O)Nc2c3c(cc4c2CCC4)CCC3)c1 [Example 21, 5-(Dimethylamino)-N-((1,2,3,5,6,7-hexahydro-s-indacen-4-yl)carbamoyl)pyridazine-3-sulfonamide, Potassium Salt]",< 800,
"COc1ccc(S(=O)(=O)NC(=O)Nc2c3c(cc4c2CCC4)CCC3)nn1 [Example 22, N-((1,2,3,5,6,7-Hexahydro-s-indacen-4-yl)carbamoyl)-6-methoxy pyridazine-3-sulfonamide, Potassium Salt]",< 1600,
"O=C(Nc1c2c(cc3c1CCC3)CCC2)NS(=O)(=O)c1ccc(=O)[nH]c1 [Example 23, N-((1,2,3,5,6,7-hexahydro-s-indacen-4-yl)carbamoyl)-6-oxo-1,6-dihydropyridine-3-sulfonamide, Potassium Salt]",< 10000,

Structure (SMILES),IC50 [1] [nM],"IC50 (THP-1 pyroptosis assay, bound stated, read-out: IC50 value) [nM]"
"N#Cc1nccnc1S(=O)(=O)NC(=O)Nc1c2c(cc3c1CCC3)CCC2 [Example 24, 3-Cyano-N-((1,2,3,5,6,7-hexahydro-s-indacen-4-yl)carbamoyl)pyrazine-2-sulfonamide, Potassium Salt]",< 10000,
"CN(C)CCNc1cnc(S(=O)(=O)NC(=O)Nc2c3c(cc4c2CCC4)CCC3)cn1 [Example 25, 5-((2-(Dimethylamino)ethyl)amino)-N-((1,2,3,5,6,7-hexahydro-s-indacen-4-yl)carbamoyl)pyrazine-2-sulfonamide, potassium Salt]",< 800,
"CN(C)c1cnc(S(=O)(=O)NC(=O)Nc2c3c(cc4c2CCC4)CCC3)cn1 [Example 26, 5-(Dimethylamino)-N-((1,2,3,5,6,7-hexahydro-s-indacen-4-yl)carbamoyl)pyrazine-2-sulfonamide, Potassium Salt]",< 800,
"O=C(Nc1c2c(cc3c1CCC3)CCC2)NS(=O)(=O)c1cncc(N2CCOCC2)n1 [Example 28, N-((1,2,3,5,6,7-Hexahydro-s-indacen-4-yl)carbamoyl)-6-morpholinopyrazine-2-sulfonamide, Potassium Salt]",< 800,
"Cc1nccnc1S(=O)(=O)NC(=O)Nc1c2c(cc3c1CCC3)CCC2 [Example 29, N-((1,2,3,5,6,7-Hexahydro-s-indacen-4-yl)carbamoyl)-3-methylpyrazine-2-sulfonamide, Potassium Salt]",< 10000,
"O=C(Nc1c2c(cc3c1CCC3)CCC2)NS(=O)(=O)c1cnc2ccccc2n1 [Example 30, N-((1,2,3,5,6,7-Hexahydro-s-indacen-4-yl)carbamoyl)quinoxaline-2-sulfonamide, Potassium Salt]",< 10000,
"Cc1nn(C)c2ncc(S(=O)(=O)NC(=O)Nc3c4c(cc5c3CCC5)CCC4)cc12 [Example 31, N-((1,2,3,5,6,7-Hexahydro-s-indacen-4-yl)carbamoyl)-1,3-dimethyl-1H-pyrazolo[3,4-b]pyridine-5-sulfonamide, Potassium Salt]",< 10000,
"CCOc1ccncc1S(=O)(=O)NC(=O)Nc1c2c(cc3c1CCC3)CCC2 [Example 32, 4-Ethoxy-N-((1,2,3,5,6,7-hexahydro-s-indacen-4-yl)carbamoyl)pyridine-3-sulfonamide, Potassium Salt]",< 10000,
"CC(C)c1cc(F)cc(-c2ccnc(C#N)c2)c1NC(=O)NS(=O)(=O)c1cncc(N(C)C)n1 [Example 34, N-((2-(2-Cyanopyridin-4-yl)-4-fluoro-6-isopropylphenyl)carbamoyl)-6-(dimethylamino)pyrazine-2-sulfonamide]",< 800,
"COc1cc(-c2cc(F)cc(C(C)C)c2NC(=O)NS(=O)(=O)c2cncc(N(C)C)n2)ccn1 [Example 35, 6-(Dimethylamino)-N-((4-fluoro-2-isopropyl-6-(2-methoxypyridin-4-yl)phenyl)carbamoyl)pyrazine-2-sulfonamide]",< 800,
"COc1cc(-c2ccc3c(c2NC(=O)NS(=O)(=O)c2cncc(N(C)C)n2)CCC3)ccn1 [Example 36, 6-(Dimethylamino)-N-((5-(2-methoxypyridin-4-yl)-2,3-dihydro-1H-inden-4-yl)carbamoyl)pyrazine-2-sulfonamide]",< 800,
"COc1cc(-c2cc(F)cc(C(C)C)c2NC(=O)NS(=O)(=O)c2cnc(N(C)C)cn2)ccn1 [Example 39, 5-(Dimethylamino)-N-((4-fluoro-2-isopropyl-6-(2-methoxypyridin-4-yl)phenyl)carbamoyl)pyrazine-2-sulfonamide]",< 800,
"CN(C)c1cnc(S(=O)(=O)NC(=O)Nc2c(-c3ccncc3)cc(F)c3c2CCC3)cn1 [Example 41, 5-(Dimethylamino)-N-((7-fluoro-5-(pyridin-4-yl)-2,3-dihydro-1H-inden-4-yl)carbamoyl)pyrazine-2-sulfonamide]",< 800,
"COc1cc(-c2cc(F)cc(C(C)C)c2NC(=O)NS(=O)(=O)c2nccnc2C(F)F)ccn1 [Example 43, 3-(Difluoromethyl)-N-((4-fluoro-2-isopropyl-6-(2-methoxypyridin-4-yl)phenyl)carbamoyl)pyrazine-2-sulfonamide]",< 10000,
"COc1cc(-c2ccc3c(c2NC(=O)NS(=O)(=O)c2nccnc2C(F)F)CCC3)ccn1 [Example 44, 3-(Difluoromethyl)-N-((5-(2-methoxypyridin-4-yl)-2,3-dihydro-1H-inden-4-yl)carbamoyl)pyrazine-2-sulfonamide]",< 1200,
"O=C(Nc1c(-c2ccncc2)cc(F)c2c1CCC2)NS(=O)(=O)c1nccnc1C(F)F [Example 45, 3-(Difluoromethyl)-N-((7-fluoro-5-(pyridin-4-yl)-2,3-dihydro-1H-inden-4-yl)carbamoyl)pyrazine-2-sulfonamide]",< 10000,

# — patent US11370776B2, “Sulfonylureas and sulfonylthioureas as NLRP3 inhibitors” (Inflazome Limited, priority 2017, dated 2022)
